Series [1] in a line: Biodistribution of [^211At]1 and [^125I]2 in normal mice with ibuprofen or IPBA as albumin-binding inhibitor. The conditions noted are these: inhibitor at 1 h postinjection, 4 h postinjection of radiotracer. The protocol:
To evaluate the effects of albumin-binding inhibitors in normal mice, [^211At]1 (37 kBq) and [^125I]2 (37 kBq) were intravenously coadministered. […] The total blood albumin (1.1 µmol) in normal mice was calculated from the albumin concentration (3.0 g/dL ≈ 455 µM) in blood, which was informed from Japan SLC, Inc., total blood volume (2.5 mL) as 8% of body weight, and the molecular weight of albumin as 66,000 g/mol. […]
Table S1. Biodistribution of radioactivity 4 h after administration of [^211At]1 and [^125I]2 in normal mice.

Series [2] in a line: Biodistribution of [^125I]2 and [^67Ga]3 in normal mice with IPBA. The class given is in vivo. The conditions noted are these: for tissue uptake at 4 h / tissue uptake dose at 4 h: male, ddY, iv, total radioactivity. On the procedure: To evaluate the effects of inhibitors in normal mice, [^125I]2 (37 kBq) and [^67Ga]3 (37 kBq) were intravenously coadministered into 6 weeks male ddY mice (29-36 g, Japan SLC, Inc., Hamamatsu, Japan). At 1 h postinjection of radiotracers, sodium 4-(4-iodophenyl)butanoate (IPBA) at 2 (680 µg, 2.2 µmol) or 5 (1.7 mg, 5.5 µmol) molar equivalent of blood albumin was administered. Mice were sacrificed at 4 h post-injection of radiotracers.
Table S2. […] IPBA as an inhibitor was administered at 1 h postinjection of [^125I]2 and [^67Ga]3.

Series [3] concerns U-87 MG tumor-bearing mice. More on the design: method as in PMID 37819452. Particulars: 24-h postinjection, without IPBA; cited from earlier work.
For series [4] the following is noted: cited from earlier work.
The mark [5] stands for this setting: normal mice, 4 h after administration of [^125I]2 and [^67Ga]3, IPBA 2 eq at 1 h postinjection.
[6] abbreviates: normal mice, 4 h after administration of [^125I]2 and [^67Ga]3, IPBA 5 eq at 1 h postinjection.
The mark [7] stands for this setting: normal mice, 4 h after administration, without IPBA.

SMILES strings stand for the structures. Where two headings read alike, the source gives them in different places. Marks after values point to notes of the source that are not given here.

In the case of `O=C([O-])CCCc1ccc(I)cc1.[Na+]` [IPBA, sodium 4-(4-iodophenyl)butanoate, reference compound], the “Effect of inhibitor on blood radioactivity of [^211At]1” value in series [1] is “decreased in a dose-dependent manner”.
For `N=C(N)NCCC[C@@H]1NC(=O)[C@H](CCCCNC(=O)[C@H](CCCCN)NC(=O)CN2CCN(CC(=O)O)CCN(CC(=O)O)CCN(CC(=O)O)CC2)NC(=O)[C@@H](Cc2ccccc2)NC(=O)[C@H](CC(=O)O)NC(=O)CNC1=O` [[^67Ga]3, [^67Ga]Ga-DOTA-K-c(RGDfK), metal not drawn], in series [2] (mouse, heart, normal mice, 4 h after administration of [^125I]2 and [^67Ga]3, IPBA 5 eq at 1 h postinjection, read-out: Radioactivity, Heart), the tissue uptake at 4 h is 0.29 %ID/g. The tissue uptake at 4 h in series [2] (mouse, in vivo, Radioactivity, L. intestine) was determined as 3.07 %ID/g. Besides, in series [2] (mouse, in vivo, Radioactivity, S. intestine), the tissue uptake at 4 h worked out at 1.05 %ID/g. In series [2] (mouse, kidney, normal mice, 4 h after administration of [^125I]2 and [^67Ga]3, IPBA 5 eq at 1 h postinjection, read-out: Radioactivity, Kidney), the tissue uptake at 4 h is 8.04 %ID/g. In addition, the tissue uptake at 4 h in series [2] (mouse, liver, normal mice, 4 h after administration of [^125I]2 and [^67Ga]3, IPBA 5 eq at 1 h postinjection, read-out: Radioactivity, Liver) turned out to be 1.54 %ID/g. Besides, the tissue uptake dose at 4 h in series [2] (mouse, neck, normal mice, 4 h after administration of [^125I]2 and [^67Ga]3, IPBA 2 eq at 1 h postinjection, read-out: Radioactivity, Neck) came out at 0.01 %ID. The tissue uptake dose at 4 h in series [2] (mouse, neck, normal mice, 4 h after administration of [^125I]2 and [^67Ga]3, IPBA 5 eq at 1 h postinjection, read-out: Radioactivity, Neck) is 0.01 %ID. Besides, the tissue uptake dose at 4 h in series [2] (mouse, stomach, normal mice, 4 h after administration of [^125I]2 and [^67Ga]3, IPBA 2 eq at 1 h postinjection, read-out: Radioactivity, Stomach) is 0.48 %ID. Further, in series [2] (mouse, stomach, normal mice, 4 h after administration of [^125I]2 and [^67Ga]3, IPBA 5 eq at 1 h postinjection, read-out: Radioactivity, Stomach), the tissue uptake dose at 4 h turned out to be 0.59 %ID. Also, in series [2] (mouse, in vivo), the “Radioactivity, L. intestine” value was 4.88 (1.50) ^a % injected activity per gram and the “Radioactivity, S. intestine” value is 1.76 (0.40) ^*,^ b % injected activity per gram. Moreover, in series [2] (setting [5]), the “Radioactivity, Blood” value is recorded as 0.03 (0.01) ^***,^ a % injected activity per gram; the “Radioactivity, Bone” value is given as 0.55 (0.08) ^**,^ a % injected activity per gram; the “Radioactivity, Brain” value was 0.04 (0.01) ^** % injected activity per gram; the “Radioactivity, Heart” value is on record as 0.23 (0.03) ^***,^ a % injected activity per gram. For the same compound, in series [2] (setting [5]), the “Radioactivity, Kidney” value is on record as 6.67 (1.04) ^* % injected activity per gram; the “Radioactivity, Liver” value is recorded as 1.18 (0.14) ^*** % injected activity per gram; the “Radioactivity, Lung” value is on record as 0.49 (0.05) ^***,^ a % injected activity per gram; the “Radioactivity, Muscle” value was 0.16 (0.02) ^***,^ a % injected activity per gram. For the same compound, in series [2] (setting [5]), the “Radioactivity, Pancreas” value is given as 0.33 (0.01) ^*** % injected activity per gram and the “Radioactivity, Spleen” value was 0.64 (0.16) ^*** % injected activity per gram. Besides, in series [2] (setting [6]), the “Radioactivity, Blood” value is 0.03 (0.00) ^*,^ a % injected activity per gram; the “Radioactivity, Bone” value is reported as 0.70 (0.12) ^** % injected activity per gram; the “Radioactivity, Brain” value was 0.05 (0.02) ^** % injected activity per gram; the “Radioactivity, Lung” value is on record as 0.55 (0.11) ^*,^ a % injected activity per gram. In addition, in series [2] (setting [6]), the “Radioactivity, Muscle” value is 0.23 (0.04) ^*,^ b % injected activity per gram; the “Radioactivity, Pancreas” value is 0.47 (0.13) ^** % injected activity per gram; the “Radioactivity, Spleen” value is reported as 0.90 (0.28) ^* % injected activity per gram. In addition, in series [2] (normal mice, IPBA 2 or 5 eq at 1 h postinjection), the “Change of biodistribution by IPBA administration” value is “did not change biodistribution”. Moreover, the Tumor accumulation in series [3] is 1.84 ± 0.09 %IA/g. Also, in series [4] (mouse, in vivo), the “Radioactivity, L. intestine” value is recorded as 1.88 (0.65) % injected activity per gram and the “Radioactivity, S. intestine” value is on record as 1.16 (0.15) ^* % injected activity per gram. Further, in series [4] (setting [7]), the “Radioactivity, Blood” value was 0.09 (0.05) ^*** % injected activity per gram; the “Radioactivity, Bone” value is 0.83 (0.05) ^* % injected activity per gram; the “Radioactivity, Brain” value is 0.05 (0.00) ^*** % injected activity per gram; the “Radioactivity, Heart” value is 0.26 (0.04) ^*** % injected activity per gram. Besides, in series [4] (setting [7]), the “Radioactivity, Kidney” value is 6.61 (0.81) ^* % injected activity per gram; the “Radioactivity, Liver” value was 1.15 (0.07) ^** % injected activity per gram; the “Radioactivity, Lung” value is reported as 0.50 (0.04) ^*** % injected activity per gram; the “Radioactivity, Muscle” value is reported as 0.19 (0.02)^ *** % injected activity per gram. In series [4] (setting [7]), the “Radioactivity, Neck” value was 0.02 (0.00)^ ** % injected activity; the “Radioactivity, Pancreas” value was 0.40 (0.03)^ *** % injected activity per gram; the “Radioactivity, Spleen” value is listed as 0.64 (0.12) ^*** % injected activity per gram; the “Radioactivity, Stomach” value is 0.44 (0.04)^ * % injected activity.

The record behind these values is article PMC11224111, “Optimizing the pharmacokinetics of an ^211At-labeled RGD peptide with an albumin-binding moiety via the administration of an albumin-binding inhibitor” (European Journal of Nuclear Medicine and Molecular Imaging, 2024).
